From article PMC6156383 (Frontiers in Psychiatry, 2018)
Values joined by “and” are separate entries in the source; they are usually repeats but may differ in a detail not shown here. Equal entries are not always repeated.

What was measured:
NOP receptor [1] = target: T1, NOP receptor (Homo sapiens, UniProt P41146); type: binding
T1 construct: expressed in transfected cells

MOP receptor [2] = target: T2, MOP receptor (Homo sapiens, UniProt P35372); type: binding
T2 construct: expressed in transfected cells
T2 sequence (P35372 whole entry): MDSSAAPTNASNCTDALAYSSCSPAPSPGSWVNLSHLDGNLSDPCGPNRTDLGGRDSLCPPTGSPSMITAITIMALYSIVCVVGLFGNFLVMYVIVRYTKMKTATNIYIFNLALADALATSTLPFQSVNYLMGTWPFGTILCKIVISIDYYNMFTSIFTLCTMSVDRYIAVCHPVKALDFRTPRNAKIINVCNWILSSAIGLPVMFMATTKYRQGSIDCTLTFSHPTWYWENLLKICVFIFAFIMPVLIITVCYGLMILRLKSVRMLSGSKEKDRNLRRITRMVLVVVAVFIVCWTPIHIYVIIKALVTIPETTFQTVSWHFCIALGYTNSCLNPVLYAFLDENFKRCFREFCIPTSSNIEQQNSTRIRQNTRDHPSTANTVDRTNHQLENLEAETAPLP

DOP receptor [3] = target: T3, DOP receptor (Homo sapiens, UniProt P41143); type: binding
T3 construct: expressed in transfected cells
T3 sequence (P41143 whole entry): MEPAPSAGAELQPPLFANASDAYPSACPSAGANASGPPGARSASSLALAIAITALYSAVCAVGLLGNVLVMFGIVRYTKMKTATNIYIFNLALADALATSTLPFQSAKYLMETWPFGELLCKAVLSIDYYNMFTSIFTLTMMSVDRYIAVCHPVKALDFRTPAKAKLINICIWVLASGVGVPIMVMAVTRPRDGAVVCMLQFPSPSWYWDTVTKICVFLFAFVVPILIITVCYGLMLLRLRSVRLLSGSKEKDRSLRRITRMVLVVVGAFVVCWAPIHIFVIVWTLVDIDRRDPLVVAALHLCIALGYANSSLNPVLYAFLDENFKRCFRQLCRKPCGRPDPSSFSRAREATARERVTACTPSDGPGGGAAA

KOP receptor [4] = target: T4, KOP receptor (Homo sapiens, UniProt P41145); type: binding
T4 construct: expressed in transfected cells
T4 sequence (P41145 whole entry): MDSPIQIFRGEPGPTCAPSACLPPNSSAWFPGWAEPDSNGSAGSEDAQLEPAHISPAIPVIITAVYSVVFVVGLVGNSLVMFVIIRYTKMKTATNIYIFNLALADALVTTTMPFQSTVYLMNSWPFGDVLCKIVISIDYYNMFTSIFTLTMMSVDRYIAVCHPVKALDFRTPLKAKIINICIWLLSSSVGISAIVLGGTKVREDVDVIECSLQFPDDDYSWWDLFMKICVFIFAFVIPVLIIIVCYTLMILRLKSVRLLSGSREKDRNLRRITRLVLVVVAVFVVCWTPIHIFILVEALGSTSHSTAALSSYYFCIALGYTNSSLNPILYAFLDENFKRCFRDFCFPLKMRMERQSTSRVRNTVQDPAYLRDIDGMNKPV

NOP receptor [5] = target: T1, NOP receptor; assay: [35S]GTPγS binding stimulation (agonist), CHO membranes; type: biochemical; conditions: for NOP % stim: [35S]GTPγS stimulation relative to standard agonist N/OFQ; for EC50: [35S]GTPγS stimulation, average ± SD
MOP receptor [6] = target: T2, MOP receptor; type: biochemical
DOP receptor [7] = target: T3, DOP receptor; assay: [35S]GTPγS binding stimulation (agonist), CHO membranes; type: biochemical; conditions: for DOP % stim: [35S]GTPγS stimulation relative to standard agonist DPDPE; for EC50: [35S]GTPγS stimulation, * = too little stimulation (if < 15% an EC50 was not always determined)
KOP receptor [8] = target: T4, KOP receptor; type: biochemical

T1 sequence (P41146 whole entry): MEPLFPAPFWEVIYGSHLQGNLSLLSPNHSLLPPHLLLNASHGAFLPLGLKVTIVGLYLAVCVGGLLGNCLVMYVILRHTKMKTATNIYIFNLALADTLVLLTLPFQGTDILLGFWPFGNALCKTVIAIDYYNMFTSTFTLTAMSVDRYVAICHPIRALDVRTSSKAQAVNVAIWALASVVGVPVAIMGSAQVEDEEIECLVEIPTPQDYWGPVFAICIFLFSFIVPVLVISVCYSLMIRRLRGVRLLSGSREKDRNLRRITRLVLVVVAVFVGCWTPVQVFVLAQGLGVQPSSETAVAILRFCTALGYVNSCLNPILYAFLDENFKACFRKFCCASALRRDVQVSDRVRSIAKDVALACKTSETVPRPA

Compound | Ki (NOP receptor [1]) | Ki (MOP receptor [2]) | Ki (DOP receptor [3]) | Ki (KOP receptor [4]) | NOP % stim (NOP receptor [5]) | EC50 (NOP receptor [5]) | EC50 (MOP receptor [6]) | MOP % stim (MOP receptor [6]) | DOP % stim (DOP receptor [7]) | EC50 (DOP receptor [7]) | EC50 (KOP receptor [8]) | KOP % stim (KOP receptor [8])
O=C(Cc1ccccc1)O[C@@]12CCC(=O)[C@@H]3Oc4c(O)ccc5c4[C@@]31CCN(CC1CC1)[C@@H]2C5 [Compound 7a, 14β-phenylacetyl-17-cyclopropylmethyl-7,8-dihydronoroxymorphinone] | 127 ± 17 nM | 0.86 ± 0.18 nM | 3.1 ± 0.6 nM | 1.14 ± 0.46 nM | 28.1 ± 4.8% | 401 ± 161 nM | 3.8 ± 1.8 nM | 31.6 ± 4.2% | 30.5 ± 5.5% | 5.6 ± 0.4 nM | 1.2 ± 0.6 nM | 44.5 ± 13%
Cc1ccccc1CC(=O)O[C@@]12CCC(=O)[C@@H]3Oc4c(O)ccc5c4[C@@]31CCN(CC1CC1)[C@@H]2C5 [Compound 7c, 14β-(2′-methylphenylacetyl)-17-cyclopropylmethyl-7,8-dihydronoroxymorphinone] | 44.1 ± 3.1 nM | 3.59 ± 0.86 nM | 1.97 ± 0.19 nM | 1.69 ± 1.2 nM | 21.1 ± 1.4% | 106 ± 32.2 nM | 2.2 ± 0.2 nM | 41.9 ± 1.4% | 12.6 ± 3.1% | 201 ± 59 nM | 2.9 ± 1.8 nM | 86% and 86.3 ± 6.5%
COc1cccc(CC(=O)O[C@@]23CCC(=O)[C@@H]4Oc5c(O)ccc6c5[C@@]42CCN(CC2CC2)C3C6)c1 [Compound 7e, 14β-(3′-methoxyphenylacetyl)-17-cyclopropylmethyl-7,8-dihydronoroxymorphinone] | 50.1 ± 2.7 nM | 1.1 ± 0.08 nM | 3.61 ± 0.34 nM | 1.44 ± 0.33 nM | 36.1 ± 0.3% | 374 ± 81.6 nM | 13.3 ± 2.2 nM | 11.3 ± 1.3% | 35.7 ± 0.7% | 9.9 ± 0.2 nM | 1.7 ± 0.4 nM | 46.3 ± 8.1%
Cc1ccc(CC(=O)O[C@@]23CCC(=O)[C@@H]4Oc5c(O)ccc6c5[C@@]42CCN(CC2CC2)[C@@H]3C6)cc1 [Compound 7b, 14β-(4′-methylphenylacetyl)-17-cyclopropylmethyl-7,8-dihydronoroxymorphinone] | 36.3 ± 4.2 nM | 1.87 ± 0.09 nM | 1.7 ± 0.2 nM | 1.56 ± 0.28 nM | 22.3 ± 1.4% | 169 ± 3.4 nM | 1.6 ± 0.9 nM | 34.9 ± 2.0% | 27.0 ± 4.8% | 3.8 ± 1.1 nM | 6.3 ± 2.2 nM | 11.5 ± 2.7%
Cc1cccc(CC(=O)O[C@@]23CCC(=O)[C@@H]4Oc5c(O)ccc6c5[C@@]42CCN(CC2CC2)[C@@H]3C6)c1 [Compound 7d, 14β-(3′-methylphenylacetyl)-17-cyclopropylmethyl-7,8-dihydronoroxymorphinone] | 49.9 ± 3.5 nM | 1.91 ± 0.51 nM | 5.58 ± 0.22 nM | 2.8 ± 0.91 nM | 59.3 ± 2.4% | 855 ± 185 nM | 5.2 ± 2 nM | 40.1 ± 4.4% | 15.8 ± 0.1% | 21.3 ± 2.2 nM | 1 ± 0.3 nM | 46.4 ± 3.6%
COc1ccccc1CC(=O)O[C@@]12CCC(=O)[C@@H]3Oc4c(O)ccc5c4[C@@]31CCN(CC1CC1)[C@@H]2C5 [Compound 7h, 14β-(2′-methoxyphenylacetyl)-17-cyclopropylmethyl-7,8-dihydronoroxymorphinone] | 62.3 ± 4.9 nM | 3.77 ± 0.9 nM |  | 3.52 ± 0.9 nM | 40.8 ± 5.4% | 479 ± 33.3 nM | 0.5 ± 0.1 nM | 37.3 ± 0.7% | 19.2 ± 4.9% |  | 1.6 ± 0.3 nM | 50.4 ± 6.0%
